The nature of data set [1]: Mouse plasma pharmacokinetics, PO 5 mg/kg. Type of data set: in vivo. How it is done:
The following example describes the methods used to evaluate the pharmacokinetics of TYK2 inhibitors in vivo following dosing of a compound of the invention.
The pharmacokinetics of test compounds were evaluated in either male CD-1 mice or male C57BL/6 mice when administered by oral gavage and IV bolus injection. The animals were allowed free access to food and water before administration. The plasma samples were analyzed by LC-MS/MS and the concentration of test compound at each time point was determined by linear regression. Pharmacokinetic parameters were calculated from the plasma concentrations by non-compartmental modeling using WinNonlin 8.2.
Oral composition. To prepare a pharmaceutical composition for oral delivery, the test articles described herein were dissolved in DMSO and then mixed with necessary volume of PEG400 followed by […] in water or 50% Kolliphor HS 15 in saline to provide the final concentrations of 0.5 mg/mL or 1 mg/mL (Table 8). The resultant mixtures were suitable for oral administration.
The PK parameters measured in mouse plasma after treatment with TYK2 inhibitor compounds via PO (oral administration) at 5 mg/kg are summarized below in Tables 9-11.

The subject of data set [2] is IL-6 induced pSTAT3. The data set can be described thus: IL-6 induced pSTAT3 assay in TF-1 cells. Particulars: Homo sapiens, read-out: Cellular selectivity (IL-6/pSTAT3). Type of data set: cell-based. How it is done:
The following example describes the IL-6 induced pSTAT3 assay used to determine the cellular selectivity (IL-6/pSTAT3) of the TYK2 inhibitors.
TF-1 (ATCC®, CRL-2003™) cells were cultured in RPMI 1640 Medium, with GlutaMAX™ Supplement, HEPES for Cell Culture (Life Technologies, 72400047), 10% Fetal Bovine Serum (Life Technologies, 26400044), 2 ng/mL human recombinant GM-CSF (Life Technologies, PHC2013), 1 mM Sodium pyruvate (Life Technologies, 11360039), 1% MEM NEAA (Life Technologies, 11140-035), 1% Penicillin/Streptomycin (Life Technologies, 15140-122).
TF-1 (70×10^6) cells were starved overnight in T150 flasks (Opti-MEM™ I Reduced Serum Medium, no phenol red (Life Technologies, 11058-021), 1 mM Na pyruvate (Life Technologies, 11360039), 1% MEM NEAA (Life Technologies, 11140-035), and 1% Penicillin/Streptomycin (Life Technologies, 15140-122)) then seeded into 96-well TPP plates (150 000 cell/well) and incubated with test compounds (Final Concentration [nM]10000-0.05) for 30 minutes at 37° C. […] Stimulation was terminated by addition of lysis buffer (MSD K150SVD) and pSTAT3 detection was measured with Phospho-STAT3 (Tyr705) Kit MSD K150SVD)) according to manufacturer's instruction. Briefly, cell lysates were added to pre-blocked plates, sealed, and shake for 1 hour at room temperature. Plates were then washed and incubated with detection antibody for 1 hour at room temperature. After washing, Read Buffer was added, and plates were read on MSD instrument (Model 1300 MSD Quickplex SQ120).

The target in data set [3] is T1, TYK2-JH2 (Homo sapiens, UniProt P29597).
T1 construct: TYK JH2 enzyme mix (ChemPartner: CP20210818A-BV); purchased ChemPartner CP20210818A-BV
The data set can be described thus: TYK2-JH2 HTRF binding assay (ligand efficiency). As to conditions: calculated from binding-assay IC50 (Equation 1). The gist of the method: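 HTRF competition binding: 0.5 nM His-tagged TYK2 JH2 preincubated 10 min at room temperature with compound (final 0.1 to 0.000005 μM), then 35 nM tracer and anti-6HIS Tb cryptate added for 60 min. Buffer 20 mM HEPES pH 7.5, 10 mM MgCl2, 0.01% Triton X-100, 1 mM DTT; TR-FRET Ex340/Em495/520. Ligand efficiency derived from binding IC50.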

For data set [4], the system named is GM-CSF induced pSTAT5. The data set can be described thus: GM-CSF induced pSTAT5 assay in CellSensor irf1-bla TF-1 cells. Type of data set: cell-based. As to conditions: Homo sapiens, GM-CSF 1 ng/mL, read-out: Cellular selectivity (GM-CSF induced pSTAT5). How it is done:
The CellSensor irfl-bla TF-1 cell line (LifeTechnologies, K1657) was cultured in RPMI 1640 Medium (Invitrogen 72400-047), 10% Fetal Bovine Serum (Invitrogen, 26400044), 1 mM Sodium pyruvate (Life Technologies, 11360039), 1% MEM NEAA (Life Technologies, 11140-035), 2 ng/ml of human recombinant GM-CSF (Fisher, PHC2015), 1% Penicillin/Streptomycin (Life Technologies, 15140-122) and 5 µg/ml of Blasticidin (ThermoFisher, A1113903).
The cell line was seeded in a T75 flask at 13×10^6 cells/50 mL in starvation medium (Opti-MEM™ I Reduced Serum Medium, no phenol red (Life Technologies, 11058-021), 1 mM Na pyruvate (Life Technologies, 11360039), 1% MEM NEAA (Life Technologies, 11140-035), and 1% Penicillin/Streptomycin (Life Technologies, 15140-122)) for 16 hours at 37° C. under 5% CO2 the day before the assay.
For the assay, CellSensor irfl-bla TF-1 cells were seeded at 30 000 cells/32 μL (starvation medium)/well in a 384-well plate.
Compounds were added on the cells in 4 μL (starvation medium)/well at 10× the final concentration. They were incubated for 30 minutes at 37° C.
Human recombinant carrier-free GM-CSF (ThermoFisher, ref PHC2015) was added to the wells in 4 μL (starvation medium)/well at 10×. The final concentration was 1 ng/mL. Control wells without GM-CSF treatment were added. Plates were incubated for 5 hours at 37° C.
6× LiveBlazer-FRET substrate (Invitrogen, K1085) was added to the wells at 8 μL/well. The substrate was prepared shortly before use by mixing 6 μL of solution A and 60 μL of solution B to 934 μL of solution C. Plates were incubated for 2.5 hours at room temperature in the dark. The plates were read on an Envision (Perkin Elmer) with an excitation at a wavelength of 409 nm and two wavelengths for the emission 520 nm and 450 nm. The ratio between the […] emission was used to calculate the IC50s.
The IC50 for the inhibition of pSTAT5 was calculated with the XLfit software using the 4 Parameter Logistic Model or Sigmoidal Dose-Response Model (model 205).

Data set [5] in a line: Brain exposure pharmacokinetics in rats. Type of data set: in vivo. As to conditions: male Sprague Dawley rats, oral gavage 10 mg/kg. How it is done:
The brain exposure of exemplary compounds, e.g., 1, 2, and 4 were evaluated in male Sprague Dawley rats after oral gavage administration at 10 mg/kg. The formulation was 5% DMSO+10% PEG400 in saline. Rats were fasted overnight with food returned 4 hours post-dose. CSF was collected by direct needle puncture into the cisterna magna.
(§1) For both rat and mouse studies, brain tissue was washed with 3 volumes of saline prior to homogenization. Brain tissue was homogenized with 3 volumes (v/w) of phosphate buffered saline. Plasma, brain homogenate, and CSF samples (rat only) were analyzed by LC-MS/MS and the concentration of test compound at each time point was determined by linear regression.
(§2) Pharmacokinetic parameters were calculated from the plasma, brain, and CSF concentrations by non-compartmental modeling using WinNonlin 8.2.

Data set [6] in a line: Brain exposure pharmacokinetics in mice. Type of data set: in vivo. As to conditions: male C57BL/6 mice, oral gavage 5 mg/kg. How it is done:
The brain exposure of 18 was evaluated in male C57BL/6 mice after oral gavage administration at 5 mg/kg. The formulation was 10% DMSO+40% PEG400 in saline. Mice were provided free access to food and water without fasting. Terminal sample collection of plasma and brain tissue were collected at […], 0.25, 0.5, 1, 2, and 4 hours post-dose with n=3 at each timepoint.
as §1, §2

A value given as a limit tells only on which side of the number the result lay.

The values that follow come from patent US20260048051A1, “TREATMENT OF INFLAMMATORY BOWEL DISEASE” (Atomwise Inc., priority 2024, published 2026).

T1 sequence (P29597 589-875 limits assumed): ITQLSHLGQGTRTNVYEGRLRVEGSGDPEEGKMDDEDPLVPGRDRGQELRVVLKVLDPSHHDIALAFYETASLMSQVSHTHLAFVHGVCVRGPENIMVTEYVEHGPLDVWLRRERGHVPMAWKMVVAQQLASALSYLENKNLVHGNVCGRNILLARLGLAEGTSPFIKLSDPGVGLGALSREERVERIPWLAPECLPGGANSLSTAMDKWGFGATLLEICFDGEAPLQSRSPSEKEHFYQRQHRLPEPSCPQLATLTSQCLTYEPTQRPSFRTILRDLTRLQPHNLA

With `Cc1nc(Nc2cc(Nc3ncccc3S(C)(=O)=O)ncn2)ccc1[C@H](C)N1CC2(COC2)C1` (stereo in doubt) [Compound 12, N^4-(5-(1-(2-oxa-6-azaspiro[3.3]heptan-6-yl)ethyl)-6-methylpyridin-2-yl)-N^6-(3-(methylsulfonyl)pyridin-2-yl)pyrimidine-4,6-diamine], in data set [1], the “Half-life (t1/2)” value is “† (†: <1.0)”, the “Maximum plasma concentration (Cmax)” value is reported as “††† (†††: >1500)” and the “Total systemic exposure (AUCinf)” value was “†† (††: 1000-2000)”. For the same compound, the IC50 in data set [2] was less than 4 µM. Besides, in data set [3], the “Ligand Efficiency” value was “††† (†††: >0.39)”. Besides, the IC50 in data set [4] was less than 4 µM.

For the compound `CC(c1ccc(Nc2cc(Nc3ncccc3S(C)(=O)=O)ncn2)nc1C(F)(F)F)N1CC2(COC2)C1` (stereo in doubt) [Compound 11, (R)—N^4-(5-(1-(2-oxa-6-azaspiro[3.3]heptan-6-yl)ethyl)-6-(trifluoromethyl)pyridin-2-yl)-N^6-(3-(methylsulfonyl)pyridin-2-yl)pyrimidine-4,6-diamine], in data set [1], the “Half-life (t1/2)” value is “††† (†††: >1.5)”, the “Maximum plasma concentration (Cmax)” value is given as “†† (††: 800-1500)” and the “Total systemic exposure (AUCinf)” value is given as “††† (†††: >2000)”. Also, in data set [2], the IC50 was less than 4 µM. Also, the “Ligand Efficiency” value in data set [3] is on record as “†† (††: 0.37-0.39)”. Moreover, the IC50 in data set [4] was more than 10 µM.

For the compound `C[C@@H](c1ccc(Nc2cc(Nc3ncccc3S(C)(=O)=O)ncn2)nc1)N(C)C` [Compound 4, (S)—N^4-(5-(1-(dimethylamino)ethyl)pyridin-2-yl)-N^6-(3-(methylsulfonyl)pyridin-2-yl) pyrimidine-4,6-diamine], the “Brain Kpu, u” value in data set [5] is given as “††† (††† >0.2 u)”. In addition, the “Ligand Efficiency” value in data set [3] is given as “††† (†††: >0.39)”.

Regarding `CS(=O)(=O)c1cccnc1Nc1cc(Nc2ccc3c(n2)CCCC3N2CC3(COC3)C2)ncn1` (stereo in doubt) [Compound 5, (R)—N^4-(5-(2-oxa-6-azaspiro[3.3]heptan-6-yl)-5,6,7,8-tetrahydroquinolin-2-yl)-N^6-(3-(methylsulfonyl)pyridin-2-yl)pyrimidine-4,6-diamine], in data set [1], the “Half-life (t1/2)” value is “††† (†††: >1.5)”, the “Maximum plasma concentration (Cmax)” value is on record as “††† (†††: >1500)” and the “Total systemic exposure (AUCinf)” value is listed as “††† (†††: >2000)”. Besides, the IC50 in data set [2] lay within 4 to 10 µM. The “Ligand Efficiency” value in data set [3] was “†† (††: 0.37-0.39)”. Further, in data set [4], the IC50 is more than 10 µM.

Regarding `Cc1cccc(Nc2cc(Nc3ncccc3S(C)(=O)=O)ncn2)n1` [Compound 18, N^4-(6-methylpyridin-2-yl)-N^6-(3-(methylsulfonyl)pyridin-2-yl) pyrimidine-4,6-diamine], the “Brain Kpu, u” value in data set [6] is given as “††† (††† >0.2 u)”. The “Ligand Efficiency” value in data set [3] is recorded as “††† (†††: >0.39)”.
